Measured values taken from patent US8563473B2, “Aqueous herbicidal concentrates of auxinic carboxylic acids with reduced eye irritancy” (Dow AgroSciences, LLC., priority 2010, dated 2013).

Tests used:
[1] = system: susceptible plants; details: concentrate diluted in water, applied postemergently; disclosed in WO 2008/106107 A1; cited from earlier work
[2] = Cold temperature stability / storage of aqueous concentrates; type: physicochemical; details: […] salt solution ([…] acid equivalent) stored at −10° C. for 14 days

| Substance | Weed control [1] | Crystallization on storage [2] |
| --- | --- | --- |
| choline salt of 2,4-D [2,4-D choline] | good weed control |  |
| triclopyr choline salt |  | did not show any crystallization |
